Our source for the melting point values is patent US20040030131A1, “Pharmaceutical compounds” (priority 2000, published 2004).

Usually melting point stands for the temperature, or range, at which the solid turns liquid. The molecule `CN(C)CC1=C(c2ccc3sccc3c2)C2CCC(C1)C2.Cl` (stereo not shown) displayed a melting point of 57.8 °C.

In the case of `CNCC1=C(c2ccc3scc(C)c3c2)C2CCC(C1)C2.Cl` (stereo not shown), the melting point lay within 204.5 to 206.7 °C.

`Cc1cc2cc(C3=C(CN(C)C)C4CCC3C4)ccc2s1.Cl` (racemic): the melting point lay within 179.5 to 181.6 °C.

In the case of `CN(C)CC1=C(c2cc3cc(F)ccc3s2)C2CCC(C1)C2.Cl` (racemic), the melting point lay within 207.4 to 211.1 °C.

`COc1cccc2sc(C3=C(CN(C)C)C4CCC3C4)cc12.Cl` (racemic) yielded a melting point of 239 to 242 °C.

The molecule `COc1cccc2cc(C3=C(CN(C)C)C4CCC3C4)sc12.Cl` (racemic) registered a melting point of 232 to 235 °C.

In turn, `CN(C)CC1=C(c2cccc3sccc23)C2CCC1C2` (racemic) [Example 15, (+/−)-((3-(Benzo[b]thiophen-4-yl)bicyclo[2.2.1]-hept-2-en-2-yl)methyl)dimethylamine] came in with a melting point of 73.5 to 76.9 °C.
